Consider 23 molecules from patent US6127337A, “Bivalent thrombin inhibitors” (National Research Council of Canada, priority 1993, dated 2000).

One assay has as its target T1, human thrombin (Homo sapiens, UniProt P00734).
T1 construct: Human α-thrombin (3,000 NIH units/mg); purchased Sigma
Kind of assay: Inhibition of amidolytic activity of human thrombin (fluorogenic, Tos-Gly-Pro-Arg-AMC), Ki. The assay is classed as biochemical. On the procedure: Materials. The chromogenic and fluorogenic substrates Tosyl-Gly-Pro-Arg-pNAand Tos-Gly-Pro-Arg-AMC were purchased from Boehringer Manheim and Sigma, respectively. […] Initial velocities were recorded at several inhibitor concentrations and kinetic parameters were determined by fitting the data to a general equation describing enzyme inhibition (Segel, 1975). The data were analyzed using the non-linear regression program RNLIN in the IMSL library (IMSL, 1987) on a microVAX™ 3500 computer. […] Fluorogenic assays were conducted using the same conditions and instrument as above operating in the fluorescence mode in the ratio (λex =383 nm, λem =455 nm) Fluorescence intensities were calibrated with 7-amino-4-methyl coumarin solution of known concentration
Determination of Thrombin Inhibitory Dissociation Constants KI
The steady-state velocity was then measured for a few minutes. The compounds of this invention were also pre-incubated with thrombin for 20 min at room temperature before adding the substrate. […] The kinetic data (the steady-state velocity at various concentrations of the substrate and the inhibitors) of the competitive inhibition was analyzed using the methods described by Segel (1975). A non-linear regression program, RNLIN in the IMSL library (IMSL, 1987), LMDER in MINPACK library (More et al., 1980) or Microsoft™ Excell™, was used to estimate the kinetic parameters (Km Vmax and Ki). The biological data are reported on tables I-V.

Assay [1] relates to carotid injury-induced thrombosis. Kind of assay: FeCl3 induced arterial injury model (carotid injury-induced thrombosis). The assay is classed as in vivo. The note with it: rat; for Dose to double occlusion time: control occlusion time 19 ± 1 min; for Dose to achieve patency at 60 min.: patency defined by no drop in vessel temperature. On the procedure:
[…]: Rat, male, Sprague-Dawley. Weight: 375-450 g The FeCl3 induced arterial injury model assays were conducted according to Kurz, K. D., Main, […]., Thrombosis research 60; 269-280, 1990 and Schumacher, W. A. et al. J. pharmacology and experimental therapeutics 267; 1237-1242, 1993. Male, Sprague-Dawley (375-450 g) are anesthetized with Urethane (1500 mg/kg IP). Animals are laid on a heating pad which is maintained at 37° C. The carotid artery is approached through a midline cervical incision. Carefully blunt dissection is used to expose and isolate the vessel from the carotid sheath. Using forceps, the artery is lifted to provide clearance to insert two small polyethylene tubing (PE-205) underneath it. The temperature probe (Physitemp MT23/3 )TM is placed between the PE-205 and the artery. The vessel temperature is monitored for 60 minutes after application of FeCl3. Vessel temperature changes are recorded on a thermister (Cole-Palmer Model 08533-41). Injury is induced by application of a small disc (3 mm dia.) of WhatmanTM No.1 filter paper previously dipped in a 35% solution of FeCl3 on the carotid artery above the temperature probe. The site of the experiment is covered with in Aluminum foil in order to protect the FeCl3 from degradation by light. […] Before the start of the experiment, one blood sample is drawn (1 ml) in a tube of 0.105M buffered citrate solution (from the eye's sinus) and the animal is exsanguinated at the end. All the samples are kept on ice and centrifuged as soon as possible at 2000 Rpm for 10 min., 4° C. The plasma is analyzed in duplicate for activated partial thromboplastin time on a haemostasis analyzer (STAGO ST4TM). From a group of four animals, two arteries are stored at -80C for further analysis.

Setting [2] is: Table II, various active site inhibitor segments, human thrombin 3.0×10^-11 M, read-out: Ki.
Where [3] appears, read: FIG. 1 Dixon plot, human α-thrombin 0.033 NIH unit/mL, pH 7.8, 25° C., read-out: Ki.
The mark [4] stands for this setting: Table IV, no assay number given, read-out: Ki.
The mark [5] stands for this setting: Table III, various linker segments, human thrombin 3.0×10^-11 M, read-out: Ki.

Read-outs that look alike come from different tables or passages of the source.

Usually Ki stands for a dissociation constant, usually derived from enzyme kinetics or from competition with a known ligand. Regarding “α-naphthyl sulfonyl-Arg-(D-Pipecolic acid)-(12-aminododecanoic acid)-4-aminobutyric acid)-Asp-Phe-Glu-Glu-Ile-Pro-Glu-Glu-Tyr-Leu-Gln-OH [Peptide P531]”, the Ki at human thrombin (setting [2]) came out at 0.032 ± 0.001 nM. In addition, in assay [1], the “Dose to double occlusion time” value was determined as 0.5 mg/kg i.v. bolus and the “Dose to achieve patency at 60 min.” value is recorded as > 2 mg/kg i.v. bolus.
Turning to “fmoc-Arg-(D-Pipecolic acid)(12-aminododecanoic acid)-4-aminobutyric acid)-Asp-Phe-Glu-Glu-Ile-Pro-Glu-Glu-Tyr-Leu-Gln-OH [Peptide P484]”, at human thrombin (setting [2]), the Ki amounted to 14.8 ± 1.2 nM.
Same read-out and setting: under “dansyl-(D-Arg)-(D-Pipecolic acid)-(12-aminododecanoic acid)-4-aminobutyric acid)-Asp-Phe-Glu-Glu-Ile-Pro-Glu-Glu-Tyr-Leu-Gln-OH [Peptide P492]” stands 1.02 ± 0.38 nM.
In the case of “dansyl-Arg-(L-Pip)-(4-aminobutyric acid-glycyl)-Asp-Phe-Glu-Glu-Ile-Pro-Glu-Glu-Tyr-Leu-Gln-OH [Peptide P409]”, the Ki entry on human thrombin (Table III, various linker segments, human thrombin 3.0×10^-11 M) is reported as “no inhibition”.
“dansyl-Arg-(D-pipecolic acid)-(12-aminododecanoic acid)-4-aminobutyric acid)-Asp-Phe-Glu-Glu-Ile-Pro-Glu-Glu-Tyr-Leu-Gln-OH [Peptide P448]”: on human thrombin (setting [3]), the Ki turned out to be 0.017 ± 0.0042 nM. Besides, in assay [1], the “Dose to double occlusion time” value was determined as 1.0 mg/kg i.v. bolus and the “Dose to achieve patency at 60 min.” value is given as > 2 mg/kg i.v. bolus.
For “α-naphthyl sulfonyl-arginyl D-pipecolic acid-(12-aminododecanoic acid)-4-aminobutyric acid)-Asp-Tyr-Glu-Pro-Ile-Pro-Glu-Glu-Ala-(L-β-cyclohexylalanine)-(D- Glu)-OH [Peptide P581]”, the Ki on human thrombin (setting [4]) was determined as 0.0145 ± 0.0009 nM. In addition, in assay [1], the “Dose to double occlusion time” value was 0.5 mg/kg i.v. bolus and the “Dose to achieve patency at 60 min.” value was found to be 1 mg/kg i.v. bolus.
As for “dansyl-Arg-(D-Pipecolic acid)-(7-aminoheptanoic acid)-glycyl)-Asp-Phe-Glu-Glu-Ile-Pro-Glu-Glu-Tyr-Leu-Gln-OH (RXXGDFEEIPEEYLQ; dansyl, D-pipecolic acid, aminoheptanoic acid-glycyl linker) [Peptide P524]”, the Ki with human thrombin (setting [5]) amounted to 1480 ± 170 nM.
With “dansyl-Arg-(D-β-cyclohexylalanine)-(12-aminododecanoic acid)-4-aminobutyric acid)-Asp-Phe-Glu-Glu-Ile-Pro-Glu-Glu-Tyr-Leu-Gln-OH [Peptide P472]”, the Ki on human thrombin (setting [2]) was 17.1 ± 3.1 nM.
In the case of “dansyl-Nle-(D-Pipecolic acid)-(12-aminododecanoic acid)-4-aminobutyric acid)-Asp-Phe-Glu-Glu-Ile-Pro-Glu-Glu-Tyr-Leu-Gln-OH [Peptide P493]”, on human thrombin (setting [2]), the Ki was 5.2 ± 1.31 nM.
With “dansyl-Arg-(D-pipecolic acid)-(12-aminododecanoic acid)-4-aminobutyric acid)-Asp-Tyr-Glu-Pro-Ile-Pro-Glu-Glu-Ala-(L-β-cyclohexylalanine)-(D- Glu)-OH [Peptide P535]”, the Ki at human thrombin (Table IV, results from assay no. 1, read-out: Ki) amounted to 0.00123 ± 0.00026 nM; at human thrombin (Table IV, results from assay no. 2, read-out: Ki) it was 0.002 ± 0.0004 nM.
Turning to “4-tert-butylbenzenesulfonyl-Arg-(D-pipecolic acid)-(12-aminododecanoic acid)-4-aminobutyric acid)-Asp-Tyr-Glu-Pro-Ile-Pro-Glu-Glu-Ala-(L-β-cyclohexylalanine)-(D- Glu)-OH [Peptide P553]”, the Ki at human thrombin (setting [4]) is 0.003 ± 0.0004 nM. Moreover, in assay [1], the “Dose to double occlusion time” value is 0.25 mg/kg i.v. bolus and the “Dose to achieve patency at 60 min.” value is 0.5-1 mg/kg i.v. bolus.
For the molecule “dansyl-Arg-(L-pipecolic acid)-(12-aminododecanoic acid)-4-aminobutyric acid)-Asp-Phe-Glu-Glu-Ile-Pro-Glu-Glu-Tyr-Leu-Gln-OH [Peptide P447]”, the Ki at human thrombin (setting [2]) worked out at 12.4 ± 1.8 nM.
The same measure, in the same setting: the result for “(D-β-cyclohexylalanine)-Arg-(D-Pipecolic acid)-(12-aminododecanoic acid)-4-aminobutyric acid)-Asp-Phe-Glu-Glu-Ile-Pro-Glu-Glu-Tyr-Leu-Gln-OH [Peptide P481]” reads 9.51 ± 0.16 nM.
Still for that read-out and setting: the result for “dansyl-Arg-(D)1-amino cyclohexane carboxylic acid-(12-aminododecanoic acid)-4-aminobutyric acid)-Asp-Phe-Glu-Glu-Ile-Pro-Glu-Glu-Tyr-Leu-Gln-OH [Peptide P473]” reads 36.3 ± 10.3 nM.
The same measure, in the same setting: under “dansyl-Phe-(D-Pipecolic acid)-(12-aminododecanoic acid)-4-aminobutyric acid)-Asp-Phe-Glu-Glu-Ile-Pro-Glu-Glu-Tyr-Leu-Gln-OH [Peptide P476]” stands 2.62 ± 0.2 nM; under “(D-Phe)-Arg-(D-Pipecolic acid)(12-aminododecanoic acid)-4-aminobutyric acid)-Asp-Phe-Glu-Glu-Ile-Pro-Glu-Glu-Tyr-Leu-Gln-OH [Peptide P483]”, 54.9 ± 6.6 nM.
As to “benzyl sulfonyl-Arg-(D-Pipecolic acid)-(12-aminododecanoic acid)-4-aminobutyric acid)-Asp-Phe-Glu-Glu-Ile-Pro-Glu-Glu-Tyr-Leu-Gln-OH [Peptide P556]”, the Ki on human thrombin (setting [2]) was 0.137 ± 0.026 nM; on human thrombin (read-out: Ki value), < 1 nM.
Regarding “dansyl-Arg-(D-Pipecolic acid)-(8-aminocaproicacid)-4-aminobutyric acid)-Asp-Phe-Glu-Glu-Ile-Pro-Glu-Glu-Tyr-Leu-Gln-OH [Peptide P528]”, the Ki is 0.521 ± 0.086 nM on human thrombin (setting [5]) and < 1 nM at human thrombin (read-out: Ki value).
As to “dansyl-Cha-(D-Pipecolic acid)-(12-aminododecanoic acid)-4-aminobutyric acid)-Asp-Phe-Glu-Glu-Ile-Pro-Glu-Glu-Tyr-Leu-Gln-OH [Peptide P477]”, the Ki at human thrombin (setting [2]) was 5.85 ± 0.098 nM.
Take “4-tert-Butyl-benzene sulfonyl-Arg-(D-Pipecolic acid)-(12-aminododecanoic acid)-4-aminobutyric acid)-Asp-Phe-Glu-Glu-Ile-Pro-Glu-Glu-Tyr-Leu-Gln-OH [Peptide P552]”: in assay [1], the “Dose to double occlusion time” value was 0.5 mg/kg i.v. bolus and the “Dose to achieve patency at 60 min.” value is reported as ≥ 2 mg/kg i.v. bolus.
For “dansyl-Arg-(D-Pipecolic acid)-(4-aminobutyric acid)-glycyl)-Asp-Phe-Glu-Glu-Ile-Pro-Glu-Glu-Tyr-Leu-Gln-OH [Peptide P514]”, at human thrombin (setting [5]), the Ki was 6800 ± 1640 nM.
As to `CC[C@H](C)[C@H](NC(=O)[C@H](CCC(=O)O)NC(=O)[C@H](CCC(=O)O)NC(=O)[C@H](Cc1ccccc1)NC(=O)[C@H](CC(=O)O)NC(=O)CCCCNC(=O)CNC(=O)CNC(=O)CCNC(=O)[C@H]1CCCCN1C(=O)[C@H](CCCNC(=N)N)NS(=O)(=O)c1cccc2c(N(C)C)cccc12)C(=O)N1CCC[C@H]1C(=O)N[C@@H](CCC(=O)O)C(=O)N[C@@H](CCC(=O)O)C(=O)N[C@@H](Cc1ccc(O)cc1)C(=O)N[C@@H](CC(C)C)C(=O)N[C@@H](CCC(N)=O)C(=O)O` [Peptide P498], the Ki at human thrombin (setting [3]) is 0.131 ± 0.022 nM; on human thrombin (read-out: Ki value), < 1 nM.
As to “dansyl-Arg-1,2,3,4-tetrahydroisoquinoline-3-carboxylic acid-(12-aminododecanoic acid)-4-aminobutyric acid)-Asp-Phe-Glu-Glu-Ile-Pro-Glu-Glu-Tyr-Leu-Gln-OH (RXXXDFEEIPEEYLQ; dansyl-Arg-Tic-aminododecanoic-aminobutyric N-terminal extension) [Peptide P471]”, the Ki with human thrombin (setting [2]) was found to be 0.285 ± 0.04 nM.
